Assay [1] addresses T1, KRAS protein (His-tagged GDP-loaded G12D 1-169) (Homo sapiens, UniProt P01116, G12D).
T1 construct: His-tagged GDP-loaded G12D 1-169
Briefly: Covalent modification of KRAS protein, intact-protein LC-MS. The class given is binding. Conditions: 24hrs at room temperature, KRAS protein ~2 µM. The gist of the method: (§1)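 His-tagged GDP-loaded KRAS 1-169 (~2 µM) incubated with compound 24 h at room temperature, then quenched with formic acid. Intact-protein LC-ESI-MS on C4 column; deconvoluted peak intensities of unmodified and adducted protein give percent covalent modification.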

Assay [2] has as its target T2, KRAS protein (His-tagged GDP-loaded G12S 1-169) (Homo sapiens, UniProt P01116, G12S).
T2 construct: His-tagged GDP-loaded G12S 1-169
Described as above. In kind it is binding. Conditions: for % G12S Modification at 24 hr.: 24hrs at room temperature, KRAS protein ~2 µM; for K-Ras12S engagement after 24-hour treatment: compound pairs differ only at R^6 (warhead). An outline of the steps:
as §1

For `N#Cc1ccn(C(=O)N2C3CCC2CN(c2nc(OC[C@@]45CCCN4C[C@H](F)C5)nc4c(F)c(-c5ccc(F)c6sc(N)c(C#N)c56)c(Cl)cc24)C3)n1` [Compound A224, 1-(3-(7-(2-amino-3-cyano-7-fluorobenzo[b]thiophen-4-yl)-6-chloro-8-fluoro-2-(((2R,7aS)-2-fluorotetrahydro-1H-pyrrolizin-7a(5H)-yl)methoxy)quinazolin-4-yl)-3,8-diazabicyclo[3.2. 1]octane-8-carbonyl)-1H-pyrazole-3-carbonitrile], the “% G12D Modification at 24 hr.” value in assay [1] is recorded as “++ (++ indicates between about 1%- 20% labelling)”. Moreover, in assay [2], the “% G12S Modification at 24 hr.” value is “++ (++ indicates between about 1%- 20% labelling)”.

With `N#Cc1cn(C(=O)N2C3CCC2CN(c2nc(OC[C@@]45CCCN4C[C@H](F)C5)nc4c(F)c(-c5ccc(F)c6sc(N)nc56)c(Cl)cc24)C3)cn1` [Compound A123, 1-(3-(7-(2-amino-7-fluorobenzo[d]thiazol-4-yl)-6-chloro-8-fluoro-2-(((2R,7aS)-2-fluorotetrahydro-1H-pyrrolizin-7a(5H)-yl)methoxy)quinazolin-4-yl)-3,8-diazabicyclo[3.2. 1]octane-8-carbonyl)-1H-imidazole-4-carbonitrile], in assay [2], the “K-Ras12S engagement after 24-hour treatment” value was “++ (++: indicates between 1% to 20% labelling)” and the “% G12S Modification at 24 hr.” value is reported as “++ (++ indicates between about 1%- 20% labelling)”.

Turning to `Nc1nc2c(-c3c(Cl)cc4c(N5CCN(C(=O)n6cncn6)CC5)nc(OC[C@@]56CCCN5C[C@H](F)C6)nc4c3F)ccc(F)c2s1` [Compound A146, (4-(7-(2-amino-7-fluorobenzo[d]thiazol-4-yl)-6-chloro-8-fluoro-2-(((2R,7aS)-2-fluorotetrahydro-1H-pyrrolizin-7a(5H)-yl)methoxy)quinazolin-4-yl)piperazin-1-yl)(1H-1,2,4-triazol-1-yl)methanone], in assay [2], the “% G12S Modification at 24 hr.” value is “+++ (+++ indicates greater than 20% labelling)”.

In the case of `N#Cc1c(N)sc2c(F)ccc(-c3c(Cl)cc4c(N5CCCC6(CN(C(=O)n7cncn7)C6)C5)nc(OC[C@@]56CCCN5C[C@H](F)C6)nc4c3F)c12` [Compound A129, 4-(4-(2-(1H-1,2,4-triazole-1-carbonyl)-2,6-diazaspiro[3.5]nonan-6-yl)-6-chloro-8-fluoro-2-(((2R,7aS)-2-fluorotetrahydro-1H-pyrrolizin-7a(5H)-yl)methoxy)quinazolin-7-yl)-2-amino-7-fluorobenzo[b]thiophene-3-carbonitrile], in assay [2], the “% G12S Modification at 24 hr.” value is listed as “+++ (+++ indicates greater than 20% labelling)”.

For the compound `Nc1nc2c(-c3c(Cl)cc4c(N5CCCN(C(=O)n6cncn6)CC5)nc(OC[C@@]56CCCN5C[C@H](F)C6)nc4c3F)ccc(F)c2s1` [Compound A191, (4-(7-(2-amino-7-fluorobenzo[d]thiazol-4-yl)-6-chloro-8-fluoro-2-(((2R,7aS)-2-fluorotetrahydro-1H-pyrrolizin-7a(5H)-yl)methoxy)quinazolin-4-yl)-1,4-diazepan-1-yl)(1H-1,2,4-triazol-1-yl)methanone], in assay [2], the “% G12S Modification at 24 hr.” value was “+++ (+++ indicates greater than 20% labelling)”.

Take `Cc1nc(C)n(C(=O)N2CC3(C2)CN(c2nc(OC[C@@]45CCCN4C[C@H](F)C5)nc4c(F)c(-c5ccc(F)c6sc(N)c(C#N)c56)c(Cl)cc24)CCO3)n1` [Compound A283, 2-amino-4-(6-chloro-4-(2-(3,5-dimethyl-1H-1,2,4-triazole-1-carbonyl)-5-oxa-2,8-diazaspiro[3.5]nonan-8-yl)-8-fluoro-2-(((2R,7aS)-2-fluorotetrahydro-1H-pyrrolizin-7a(5H)-yl)methoxy)quinazolin-7-yl)-7-fluorobenzo[b]thiophene-3-carbonitrile]: the “% G12S Modification at 24 hr.” value in assay [2] is reported as “+++ (+++ indicates greater than 20% labelling)”.

Regarding `Cc1nc(C)n(C(=O)N2CC3(COCCN(c4nc(OC[C@@]56CCCN5C[C@H](F)C6)nc5c(F)c(-c6ccc(F)c7sc(N)c(C#N)c67)c(Cl)cc45)C3)C2)n1` [Compound A185, 2-amino-4-(6-chloro-4-(2-(3,5-dimethyl-1H-1,2,4-triazole-1-carbonyl)-6-oxa-2,9-diazaspiro[3.6]decan-9-yl)-8-fluoro-2-(((2R,7aS)-2-fluorotetrahydro-1H-pyrrolizin-7a(5H)-yl)methoxy)quinazolin-7-yl)-7-fluorobenzo[b]thiophene-3-carbonitrile], the “% G12S Modification at 24 hr.” value in assay [2] is on record as “++ (++ indicates between about 1%- 20% labelling)”.

For the compound `N#CCc1ncn(C(=O)N2CC3(C2)CN(c2nc(OC[C@@]45CCCN4C[C@H](F)C5)nc4c(F)c(-c5ccc(F)c6sc(N)c(C#N)c56)c(Cl)cc24)CCO3)n1` [Compound A110, 2-amino-4-(6-chloro-4-(2-(3-(cyanomethyl)-1H-1,2,4-triazole-1-carbonyl)-5-oxa-2,8-diazaspiro[3.5]nonan-8-yl)-8-fluoro-2-(((2R,7aS)-2-fluorotetrahydro-1H-pyrrolizin-7a(5H)-yl)methoxy)quinazolin-7-yl)-7-fluorobenzo[b]thiophene-3-carbonitrile], in assay [2], the “K-Ras12S engagement after 24-hour treatment” value is recorded as “+++ (+++: indicates equal to or greater than 20% labelling)” and the “% G12S Modification at 24 hr.” value is on record as “+++ (+++ indicates greater than 20% labelling)”.

`N#Cc1c(N)sc2c(F)ccc(-c3c(Cl)cc4c(N5CCOC6(CN(C(=O)n7ccnn7)C6)C5)nc(OC[C@@]56CCCN5C[C@H](F)C6)nc4c3F)c12` [Compound A195, 4-(4-(2-(1H-1,2,3-triazole-1-carbonyl)-5-oxa-2,8-diazaspiro[3.5]nonan-8-yl)-6-chloro-8-fluoro-2-(((2R,7aS)-2-fluorotetrahydro-1H-pyrrolizin-7a(5H)-yl)methoxy)quinazolin-7-yl)-2-amino-7-fluorobenzo[b]thiophene-3-carbonitrile]: the “% G12S Modification at 24 hr.” value in assay [2] is given as “+++ (+++ indicates greater than 20% labelling)”.

For `Nc1nc2c(-c3c(Cl)cc4c(N5CCCC6(CN(C(=O)n7cncn7)C6)C5)nc(OC[C@@]56CCCN5C[C@H](F)C6)nc4c3F)ccc(F)c2s1` [Compound A136, (6-(7-(2-amino-7-fluorobenzo[d]thiazol-4-yl)-6-chloro-8-fluoro-2-(((2R,7aS)-2-fluorotetrahydro-1H-pyrrolizin-7a(5H)-yl)methoxy)quinazolin-4-yl)-2,6-diazaspiro[3.5]nonan-2-yl)(1H-1,2,4-triazol-1-yl)methanone], the “% G12S Modification at 24 hr.” value in assay [2] is “+++ (+++ indicates greater than 20% labelling)”.

For `CN(C)C1CN(c2nc(N3CCOC4(CN(C(=O)n5cncn5)C4)C3)c3cc(Cl)c(-c4ccc(F)c5sc(N)c(C#N)c45)c(F)c3n2)C1` [Compound A256, 4-(4-(2-(1H-1,2,4-triazole-1-carbonyl)-5-oxa-2,8-diazaspiro[3.5]nonan-8-yl)-6-chloro-2-(3-(dimethylamino)azetidin-1-yl)-8-fluoroquinazolin-7-yl)-2-amino-7-fluorobenzo[b]thiophene-3-carbonitrile], in assay [2], the “% G12S Modification at 24 hr.” value is reported as “+++ (+++ indicates greater than 20% labelling)”.

The values above are taken from EP4389751A1, “HETEROCYCLIC COMPOUNDS AND USES THEREOF” (Kumquat Biosciences Inc., priority 2021, dated 2024).
